Assay: xn = mol fraction of the nth substance listed
Details: for speed of sound: 100 kPa, Frequency=3 MHz, Sing-around technique in a fixed-path interferometer; for speed of sound / viscosity / mass density: Liquid; for viscosity / mass density: 102 kPa; for viscosity: Concentric cylinders viscometry; for mass density: Vibrating tube method; for surface tension liquid-gas: 294.5 K, Pendant drop shape

CCCCc1ccccc1 [butylbenzene] + CCCCCCCCCC
Details | mass density [kg/m3] | speed of sound [m/s] | viscosity [mPa·s]
293.15 K, x1 = 0.1055 | 740.9 | 1259.2 | 0.917
293.15 K, x1 = 0.2096 | 752.3 | 1266.3 | 0.917
293.15 K, x1 = 0.3124 | 764.12 | 1273.8 | 0.921
293.15 K, x1 = 0.4141 | 776.38 | 1282.1 | 0.928
293.15 K, x1 = 0.5145 | 789.08 | 1291.3 | 0.94
293.15 K, x1 = 0.614 | 802.32 | 1301.1 | 0.957
293.15 K, x1 = 0.712 | 816.03 | 1312.2 | 0.981
293.15 K, x1 = 0.8094 | 830.38 | 1324.5 | 1
293.15 K, x1 = 0.9051 | 845.04 | 1338.2 | 1.03
293.15 K, x1 = 1 | 860.51 | 1353.7 | 1.05
303.15 K, x1 = 0.1055 | 733.32 | 1220.2 | 0.792
303.15 K, x1 = 0.2096 | 744.67 | 1227.4 | 0.794
303.15 K, x1 = 0.3124 | 756.43 | 1235 | 0.798
303.15 K, x1 = 0.4141 | 768.66 | 1243.5 | 0.805
303.15 K, x1 = 0.5145 | 781.31 | 1252.5 | 0.816
303.15 K, x1 = 0.614 | 794.51 | 1262.6 | 0.83
303.15 K, x1 = 0.712 | 808.16 | 1273.7 | 0.849
303.15 K, x1 = 0.8094 | 822.46 | 1286 | 0.866
303.15 K, x1 = 0.9051 | 837.07 | 1299.4 | 0.891
303.15 K, x1 = 1 | 852.49 | 1314.9 | 0.91
313.15 K, x1 = 0.1055 | 725.64 | 1181.5 | 0.693
313.15 K, x1 = 0.2096 | 736.97 | 1188.9 | 0.696
313.15 K, x1 = 0.3124 | 748.7 | 1196.6 | 0.7
313.15 K, x1 = 0.4141 | 760.89 | 1205.2 | 0.707
313.15 K, x1 = 0.5145 | 773.5 | 1214.3 | 0.716
313.15 K, x1 = 0.614 | 786.65 | 1224.4 | 0.727
313.15 K, x1 = 0.712 | 800.26 | 1235.6 | 0.743
313.15 K, x1 = 0.8094 | 814.51 | 1247.9 | 0.76
313.15 K, x1 = 0.9051 | 829.07 | 1261.2 | 0.781
313.15 K, x1 = 1 | 844.43 | 1276.6 | 0.801
323.15 K, x1 = 0.1055 | 717.94 | 1143.3 | 0.616
323.15 K, x1 = 0.2096 | 729.23 | 1150.8 | 0.619
323.15 K, x1 = 0.3124 | 740.92 | 1158.7 | 0.624
323.15 K, x1 = 0.4141 | 753.07 | 1167.3 | 0.63
323.15 K, x1 = 0.5145 | 765.64 | 1176.6 | 0.639
323.15 K, x1 = 0.614 | 778.75 | 1186.7 | 0.649
323.15 K, x1 = 0.712 | 792.31 | 1197.9 | 0.661
323.15 K, x1 = 0.8094 | 806.52 | 1210.2 | 0.677
323.15 K, x1 = 0.9051 | 821.03 | 1223.5 | 0.695
323.15 K, x1 = 1 | 836.34 | 1238.7 | 0.713
333.15 K, x1 = 0.1055 | 710.17 | 1105.6 | 0.547
333.15 K, x1 = 0.2096 | 721.43 | 1113.2 | 0.549
333.15 K, x1 = 0.3124 | 733.08 | 1121.2 | 0.555
333.15 K, x1 = 0.4141 | 745.19 | 1129.9 | 0.56
333.15 K, x1 = 0.5145 | 757.73 | 1139.3 | 0.568
333.15 K, x1 = 0.614 | 770.8 | 1149.5 | 0.577
333.15 K, x1 = 0.712 | 784.32 | 1160.7 | 0.589
333.15 K, x1 = 0.8094 | 798.48 | 1173 | 0.602
333.15 K, x1 = 0.9051 | 812.95 | 1186.3 | 0.618
333.15 K, x1 = 1 | 828.21 | 1201.4 | 0.636
343.15 K, x1 = 0.1055 | 702.3 | – | 0.488
343.15 K, x1 = 0.2096 | 713.5 | – | 0.492
343.15 K, x1 = 0.3124 | 725.1 | – | 0.496
343.15 K, x1 = 0.4141 | 737.2 | – | 0.502
343.15 K, x1 = 0.5145 | 749.7 | – | 0.509
343.15 K, x1 = 0.614 | 762.7 | – | 0.518
343.15 K, x1 = 0.712 | 776.1 | – | 0.528
343.15 K, x1 = 0.8094 | 790.3 | – | 0.54
343.15 K, x1 = 0.9051 | 804.7 | – | 0.554
343.15 K, x1 = 1 | 819.9 | – | 0.571
353.15 K, x1 = 0.1055 | 694.4 | – | 0.439
353.15 K, x1 = 0.2096 | 705.6 | – | 0.443
353.15 K, x1 = 0.3124 | 717.1 | – | 0.447
353.15 K, x1 = 0.4141 | 729.2 | – | 0.453
353.15 K, x1 = 0.5145 | 741.7 | – | 0.46
353.15 K, x1 = 0.614 | 754.6 | – | 0.467
353.15 K, x1 = 0.712 | 768 | – | 0.477
353.15 K, x1 = 0.8094 | 782.1 | – | 0.488
353.15 K, x1 = 0.9051 | 796.5 | – | 0.5
353.15 K, x1 = 1 | 811.7 | – | 0.516
363.15 K, x1 = 0.1055 | 686.4 | – | 0.399
363.15 K, x1 = 0.2096 | 697.5 | – | 0.402
363.15 K, x1 = 0.3124 | 709.1 | – | 0.407
363.15 K, x1 = 0.4141 | 721.1 | – | 0.412
363.15 K, x1 = 0.5145 | 733.5 | – | 0.419
363.15 K, x1 = 0.614 | 746.4 | – | 0.426
363.15 K, x1 = 0.712 | 759.9 | – | 0.434
363.15 K, x1 = 0.8094 | 773.9 | – | 0.444
363.15 K, x1 = 0.9051 | 788.3 | – | 0.456
363.15 K, x1 = 1 | 803.4 | – | 0.469
373.15 K, x1 = 0.1055 | 678.2 | – | 0.365
373.15 K, x1 = 0.2096 | 689.3 | – | 0.369
373.15 K, x1 = 0.3124 | 700.9 | – | 0.373
373.15 K, x1 = 0.4141 | 712.8 | – | 0.378
373.15 K, x1 = 0.5145 | 725.3 | – | 0.384
373.15 K, x1 = 0.614 | 738.2 | – | 0.391
373.15 K, x1 = 0.712 | 751.6 | – | 0.399
373.15 K, x1 = 0.8094 | 765.6 | – | 0.408
373.15 K, x1 = 0.9051 | 779.9 | – | 0.419
373.15 K, x1 = 1 | 795 | – | 0.43

Details | surface tension liquid-gas [mN/m]
x1 = 0.1055 | 23.9
x1 = 0.2096 | 24.3
x1 = 0.3124 | 24.6
x1 = 0.4141 | 24.9
x1 = 0.5145 | 25.4
x1 = 0.614 | 25.8
x1 = 0.712 | 26.5
x1 = 0.8094 | 26.7
x1 = 0.9051 | 27.9
